Experimental data from the kinase profiling compilation of Christmann-Franck et al. (2016).
“And” between values parts separate entries of the source, which are not always exact repeats. Identical values can stand only once.

How the values were obtained:
Test in all cases: radiometric filter-binding kinase assay, Kinase HotSpot
Conditions in all cases: compound 0.5 µM; ATP 10 µM
CAMK1 (human) = CAMK1 (human) (UniProt Q14012)
MAPK9 (human) = MAPK9 (human) (UniProt P45984)
STK39 (human) = STK39 (human) (UniProt Q9UEW8)
GRK6 (human) = GRK6 (human) (UniProt P43250)
DMPK (human) = DMPK (human) (UniProt Q09013)
HIPK2 (human) = HIPK2 (human) (UniProt Q9H2X6)
CSNK1G3 (human) = CSNK1G3 (human) (UniProt Q9Y6M4)
MAPK10 (human) = MAPK10 (human) (UniProt P53779)
EPHA1 (human) = EPHA1 (human) (UniProt P21709)
FES (human) = FES (human) (UniProt P07332)
EPHA7 (human) = EPHA7 (human) (UniProt Q15375)
MAP3K7 TAB1 (human) = MAP3K7 TAB1 (human) (UniProt O43318+Q15750)
DAPK2 (human) = DAPK2 (human) (UniProt Q9UIK4)
ROCK1 (human) = ROCK1 (human) (UniProt Q13464)
NEK7 (human) = NEK7 (human) (UniProt Q8TDX7)
NEK6 (human) = NEK6 (human) (UniProt Q9HC98)
CAMK2D (human) = CAMK2D (human) (UniProt Q13557)
PRKD3 (human) = PRKD3 (human) (UniProt O94806)
TBK1 (human) = TBK1 (human) (UniProt Q9UHD2)
GRK7 (human) = GRK7 (human) (UniProt Q8WTQ7)
EPHB4 (human) = EPHB4 (human) (UniProt P54760)
PRKCG (human) = PRKCG (human) (UniProt P05129)
LYN (human) = LYN (human) (UniProt P07948)
NEK9 (human) = NEK9 (human) (UniProt Q8TD19)
CAMK1G (human) = CAMK1G (human) (UniProt Q96NX5)
NEK11 (human) = NEK11 (human) (UniProt Q8NG66)
ACVR1 (human) = ACVR1 (human) (UniProt Q04771)
MARK3 (human) = MARK3 (human) (UniProt P27448)
BRSK1 (human) = BRSK1 (human) (UniProt Q8TDC3)
PRKX (human) = PRKX (human) (UniProt P51817)
NLK (human) = NLK (human) (UniProt Q9UBE8)
SIK2 (human) = SIK2 (human) (UniProt Q9H0K1)
STK10 (human) = STK10 (human) (UniProt O94804)
CLK2 (human) = CLK2 (human) (UniProt P49760)
CDK6 CCND1 (human) = CDK6 CCND1 (human) (UniProt Q00534+P24385)
WNK3 (human) = WNK3 (human) (UniProt Q9BYP7)
HIPK3 (human) = HIPK3 (human) (UniProt Q9H422)
EPHB1 (human) = EPHB1 (human) (UniProt P54762)
EPHA3 (human) = EPHA3 (human) (UniProt P29320)
EPHA2 (human) = EPHA2 (human) (UniProt P29317)
DAPK1 (human) = DAPK1 (human) (UniProt P53355)
IRAK4 (human) = IRAK4 (human) (UniProt Q9NWZ3)

Sequence of LYN (human) (P07948 whole entry, looked up): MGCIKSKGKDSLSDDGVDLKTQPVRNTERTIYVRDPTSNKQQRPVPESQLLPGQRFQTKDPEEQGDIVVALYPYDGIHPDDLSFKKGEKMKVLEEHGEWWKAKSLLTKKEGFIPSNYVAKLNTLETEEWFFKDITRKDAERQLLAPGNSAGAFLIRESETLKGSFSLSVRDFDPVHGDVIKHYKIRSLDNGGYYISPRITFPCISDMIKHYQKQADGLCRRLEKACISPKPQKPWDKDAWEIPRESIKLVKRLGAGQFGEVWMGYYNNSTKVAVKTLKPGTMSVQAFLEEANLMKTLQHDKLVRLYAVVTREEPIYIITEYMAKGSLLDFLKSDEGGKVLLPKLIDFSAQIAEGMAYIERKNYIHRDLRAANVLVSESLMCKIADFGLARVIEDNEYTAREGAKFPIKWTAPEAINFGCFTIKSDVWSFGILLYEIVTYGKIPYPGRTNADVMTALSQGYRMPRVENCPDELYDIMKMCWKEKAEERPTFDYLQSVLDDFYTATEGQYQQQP
Sequence of NLK (human) (Q9UBE8 whole entry, looked up): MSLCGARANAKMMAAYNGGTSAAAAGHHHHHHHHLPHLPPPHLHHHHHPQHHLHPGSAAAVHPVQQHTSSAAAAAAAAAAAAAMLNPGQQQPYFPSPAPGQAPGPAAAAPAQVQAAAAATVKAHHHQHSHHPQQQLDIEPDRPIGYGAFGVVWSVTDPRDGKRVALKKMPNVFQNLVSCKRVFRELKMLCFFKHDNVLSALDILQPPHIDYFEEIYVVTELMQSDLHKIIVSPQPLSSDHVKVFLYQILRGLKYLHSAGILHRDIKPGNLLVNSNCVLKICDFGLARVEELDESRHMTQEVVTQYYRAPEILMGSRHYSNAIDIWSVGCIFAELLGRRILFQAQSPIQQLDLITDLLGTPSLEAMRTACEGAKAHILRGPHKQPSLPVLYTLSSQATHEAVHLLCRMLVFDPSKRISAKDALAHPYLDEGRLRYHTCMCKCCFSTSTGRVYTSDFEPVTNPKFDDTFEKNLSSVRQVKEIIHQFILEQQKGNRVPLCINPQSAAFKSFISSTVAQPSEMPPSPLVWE
Sequence of CDK6 CCND1 (human) (P24385 whole entry, looked up): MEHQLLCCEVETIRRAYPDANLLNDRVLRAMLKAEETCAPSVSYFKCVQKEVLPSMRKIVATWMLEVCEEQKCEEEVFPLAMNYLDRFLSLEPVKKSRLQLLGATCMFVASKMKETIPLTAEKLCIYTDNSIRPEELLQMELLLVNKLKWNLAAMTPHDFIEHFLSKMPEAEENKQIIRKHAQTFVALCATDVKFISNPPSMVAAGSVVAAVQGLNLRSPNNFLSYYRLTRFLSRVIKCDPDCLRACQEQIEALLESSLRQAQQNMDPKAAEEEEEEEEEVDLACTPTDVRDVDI
Sequence of CDK6 CCND1 (human) (Q00534 whole entry, looked up): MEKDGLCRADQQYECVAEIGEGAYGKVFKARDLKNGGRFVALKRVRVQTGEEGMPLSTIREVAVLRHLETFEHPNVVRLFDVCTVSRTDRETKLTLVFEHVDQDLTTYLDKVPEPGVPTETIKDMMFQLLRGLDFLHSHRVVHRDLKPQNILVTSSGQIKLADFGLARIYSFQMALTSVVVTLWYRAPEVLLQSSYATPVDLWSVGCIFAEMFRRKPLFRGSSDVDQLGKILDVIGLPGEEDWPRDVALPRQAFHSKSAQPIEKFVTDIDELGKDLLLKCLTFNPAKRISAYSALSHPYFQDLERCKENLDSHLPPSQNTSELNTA
Sequence of EPHA7 (human) (Q15375 whole entry, looked up): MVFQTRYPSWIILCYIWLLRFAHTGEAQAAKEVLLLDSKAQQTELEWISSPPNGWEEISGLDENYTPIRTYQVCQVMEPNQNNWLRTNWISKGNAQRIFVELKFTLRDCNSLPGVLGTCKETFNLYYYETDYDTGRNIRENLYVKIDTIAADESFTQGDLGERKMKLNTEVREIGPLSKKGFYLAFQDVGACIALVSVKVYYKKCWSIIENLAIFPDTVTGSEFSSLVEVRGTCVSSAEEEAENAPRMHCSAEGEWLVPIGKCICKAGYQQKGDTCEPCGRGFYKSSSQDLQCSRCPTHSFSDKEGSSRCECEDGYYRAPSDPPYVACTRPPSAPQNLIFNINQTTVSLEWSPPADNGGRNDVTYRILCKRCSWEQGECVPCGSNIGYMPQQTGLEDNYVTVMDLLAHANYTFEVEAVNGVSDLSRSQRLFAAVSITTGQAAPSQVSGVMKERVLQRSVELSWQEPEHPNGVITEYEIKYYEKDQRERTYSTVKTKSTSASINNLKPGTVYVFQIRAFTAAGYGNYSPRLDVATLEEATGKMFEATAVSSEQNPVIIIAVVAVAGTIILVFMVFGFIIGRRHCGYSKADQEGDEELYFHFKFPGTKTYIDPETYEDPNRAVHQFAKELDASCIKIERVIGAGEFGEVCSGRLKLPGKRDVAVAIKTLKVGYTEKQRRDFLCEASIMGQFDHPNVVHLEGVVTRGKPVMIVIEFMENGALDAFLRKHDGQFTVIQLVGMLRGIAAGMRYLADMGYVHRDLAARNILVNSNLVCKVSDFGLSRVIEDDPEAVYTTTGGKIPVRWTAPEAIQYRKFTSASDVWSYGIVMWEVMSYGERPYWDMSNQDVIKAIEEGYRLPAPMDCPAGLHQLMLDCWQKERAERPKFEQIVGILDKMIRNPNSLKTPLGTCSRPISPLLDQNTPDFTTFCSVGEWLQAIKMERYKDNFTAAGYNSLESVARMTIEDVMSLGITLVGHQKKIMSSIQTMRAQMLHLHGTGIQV
Sequence of SIK2 (human) (Q9H0K1 whole entry, looked up): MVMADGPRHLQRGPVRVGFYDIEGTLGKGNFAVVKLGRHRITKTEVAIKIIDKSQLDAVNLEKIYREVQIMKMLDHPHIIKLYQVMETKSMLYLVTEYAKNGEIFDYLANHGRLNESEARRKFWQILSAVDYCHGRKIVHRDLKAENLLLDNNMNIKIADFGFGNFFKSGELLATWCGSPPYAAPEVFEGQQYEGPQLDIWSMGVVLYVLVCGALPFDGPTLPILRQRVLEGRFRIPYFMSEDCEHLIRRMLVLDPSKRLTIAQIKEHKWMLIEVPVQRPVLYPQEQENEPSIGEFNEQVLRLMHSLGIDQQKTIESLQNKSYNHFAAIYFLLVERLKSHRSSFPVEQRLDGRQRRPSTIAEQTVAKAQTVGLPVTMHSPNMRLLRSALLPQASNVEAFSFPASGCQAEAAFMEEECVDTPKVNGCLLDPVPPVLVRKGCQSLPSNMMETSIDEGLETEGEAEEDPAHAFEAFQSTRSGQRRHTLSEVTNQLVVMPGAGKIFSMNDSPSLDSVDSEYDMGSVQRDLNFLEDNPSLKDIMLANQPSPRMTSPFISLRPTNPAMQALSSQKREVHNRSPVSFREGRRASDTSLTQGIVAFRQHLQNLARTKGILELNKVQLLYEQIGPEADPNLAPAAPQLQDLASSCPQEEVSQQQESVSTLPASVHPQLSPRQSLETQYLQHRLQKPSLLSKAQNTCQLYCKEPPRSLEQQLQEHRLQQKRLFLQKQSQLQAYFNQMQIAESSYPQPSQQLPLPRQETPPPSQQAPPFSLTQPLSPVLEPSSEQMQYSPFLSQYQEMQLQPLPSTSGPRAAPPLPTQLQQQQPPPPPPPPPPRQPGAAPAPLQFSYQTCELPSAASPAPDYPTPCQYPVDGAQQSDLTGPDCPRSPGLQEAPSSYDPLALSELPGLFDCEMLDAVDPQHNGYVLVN
Sequence of NEK9 (human) (Q8TD19 whole entry, looked up): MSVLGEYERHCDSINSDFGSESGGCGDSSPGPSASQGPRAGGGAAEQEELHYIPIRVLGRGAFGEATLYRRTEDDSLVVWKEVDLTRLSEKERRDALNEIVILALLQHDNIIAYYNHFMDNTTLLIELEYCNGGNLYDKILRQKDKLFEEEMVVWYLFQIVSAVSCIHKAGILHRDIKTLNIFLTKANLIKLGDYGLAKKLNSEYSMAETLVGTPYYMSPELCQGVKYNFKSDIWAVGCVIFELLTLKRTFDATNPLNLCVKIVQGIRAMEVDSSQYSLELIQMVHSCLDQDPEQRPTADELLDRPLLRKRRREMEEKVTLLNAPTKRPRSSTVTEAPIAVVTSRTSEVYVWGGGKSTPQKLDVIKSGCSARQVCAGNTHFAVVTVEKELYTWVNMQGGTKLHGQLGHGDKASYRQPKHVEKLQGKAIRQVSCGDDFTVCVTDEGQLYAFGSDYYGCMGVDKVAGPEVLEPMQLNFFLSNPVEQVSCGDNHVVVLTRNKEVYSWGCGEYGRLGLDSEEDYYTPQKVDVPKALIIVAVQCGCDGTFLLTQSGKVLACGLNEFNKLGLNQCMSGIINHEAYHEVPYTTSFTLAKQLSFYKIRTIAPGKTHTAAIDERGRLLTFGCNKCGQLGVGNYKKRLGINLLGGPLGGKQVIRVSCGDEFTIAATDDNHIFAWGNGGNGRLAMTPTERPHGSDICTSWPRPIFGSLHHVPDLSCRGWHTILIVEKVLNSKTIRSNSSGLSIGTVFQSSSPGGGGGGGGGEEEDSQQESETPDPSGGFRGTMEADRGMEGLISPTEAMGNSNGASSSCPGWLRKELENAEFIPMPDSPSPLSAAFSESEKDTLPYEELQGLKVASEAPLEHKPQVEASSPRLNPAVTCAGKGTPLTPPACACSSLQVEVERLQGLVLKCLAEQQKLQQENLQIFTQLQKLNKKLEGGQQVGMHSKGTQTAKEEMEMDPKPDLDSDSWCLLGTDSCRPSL
Sequence of NEK6 (human) (Q9HC98 whole entry, looked up): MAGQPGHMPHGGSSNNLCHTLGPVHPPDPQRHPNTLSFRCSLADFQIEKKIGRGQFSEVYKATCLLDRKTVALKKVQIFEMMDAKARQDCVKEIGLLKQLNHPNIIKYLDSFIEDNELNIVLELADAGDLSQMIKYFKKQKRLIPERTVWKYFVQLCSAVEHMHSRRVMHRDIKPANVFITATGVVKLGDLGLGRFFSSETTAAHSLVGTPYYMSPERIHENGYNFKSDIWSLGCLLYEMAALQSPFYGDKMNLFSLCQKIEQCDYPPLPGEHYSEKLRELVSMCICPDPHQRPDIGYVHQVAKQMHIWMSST

## Oc1ccc(Nc2nc(-c3ccc(Cl)cc3)cs2)cc1
CAMK1 (human)
  residual activity: 111%
MAPK9 (human)
  residual activity: 98.3%
STK39 (human)
  residual activity: 94.2%
GRK6 (human)
  residual activity: 100%
DMPK (human)
  residual activity: 102%
HIPK2 (human)
  residual activity: 90.9%
CSNK1G3 (human)
  residual activity: 103%
MAPK10 (human)
  residual activity: 101%
EPHA1 (human)
  residual activity: 92.6%
FES (human)
  residual activity: 103%
EPHA7 (human)
  residual activity: 97.7%
MAP3K7 TAB1 (human)
  residual activity: 95.3%
DAPK2 (human)
  residual activity: 107%
ROCK1 (human)
  residual activity: 103%
NEK7 (human)
  residual activity: 106%
NEK6 (human)
  residual activity: 95.2%
CAMK2D (human)
  residual activity: 98.8%
PRKD3 (human)
  residual activity: 97.7%
TBK1 (human)
  residual activity: 95.2%
GRK7 (human)
  residual activity: 109%
EPHB4 (human)
  residual activity: 89.6%
PRKCG (human)
  residual activity: 87.3%
LYN (human)
  residual activity: 100%
NEK9 (human)
  residual activity: 90.6%
CAMK1G (human)
  residual activity: 106%
NEK11 (human)
  residual activity: 77.1%
ACVR1 (human)
  residual activity: 94.9%
MARK3 (human)
  residual activity: 95.3%
BRSK1 (human)
  residual activity: 102%
PRKX (human)
  residual activity: 99.6%
NLK (human)
  residual activity: 101%
SIK2 (human)
  residual activity: 90.7%
STK10 (human)
  residual activity: 96.6%
CLK2 (human)
  residual activity: 102%
CDK6 CCND1 (human)
  residual activity: 101%
WNK3 (human)
  residual activity: 98.7%
HIPK3 (human)
  residual activity: 109%
EPHB1 (human)
  residual activity: 105%
EPHA3 (human)
  residual activity: 110%
EPHA2 (human)
  residual activity: 105%
DAPK1 (human)
  residual activity: 101%
IRAK4 (human)
  residual activity: 111%

## Cc1nc2cc3nc(-c4cccs4)cnc3cc2n1C
CAMK1 (human)
  residual activity: 98.1%
MAPK9 (human)
  residual activity: 74.7%
STK39 (human)
  residual activity: 79.8%
GRK6 (human)
  residual activity: 104%
DMPK (human)
  residual activity: 100%
HIPK2 (human)
  residual activity: 107%
CSNK1G3 (human)
  residual activity: 96.1%
MAPK10 (human)
  residual activity: 96.3%
EPHA1 (human)
  residual activity: 87.1%
FES (human)
  residual activity: 106%
EPHA7 (human)
  residual activity: 92.5%
MAP3K7 TAB1 (human)
  residual activity: 92.5%
DAPK2 (human)
  residual activity: 94.1%
ROCK1 (human)
  residual activity: 97.8%
NEK7 (human)
  residual activity: 86.5%
NEK6 (human)
  residual activity: 99.2%
CAMK2D (human)
  residual activity: 100%
PRKD3 (human)
  residual activity: 97.1%
TBK1 (human)
  residual activity: 93%
GRK7 (human)
  residual activity: 96.6%
EPHB4 (human)
  residual activity: 92.1%
PRKCG (human)
  residual activity: 94.9%
LYN (human)
  residual activity: 117% and 97.8%
NEK9 (human)
  residual activity: 105%
CAMK1G (human)
  residual activity: 106%
NEK11 (human)
  residual activity: 93.1%
ACVR1 (human)
  residual activity: 99.3%
MARK3 (human)
  residual activity: 105%
BRSK1 (human)
  residual activity: 98.7%
PRKX (human)
  residual activity: 106%
NLK (human)
  residual activity: 105%
SIK2 (human)
  residual activity: 112%
STK10 (human)
  residual activity: 94.7%
CLK2 (human)
  residual activity: 95.3%
CDK6 CCND1 (human)
  residual activity: 99.3%
WNK3 (human)
  residual activity: 96.9%
HIPK3 (human)
  residual activity: 101%
EPHB1 (human)
  residual activity: 107%
EPHA3 (human)
  residual activity: 102%
EPHA2 (human)
  residual activity: 107%
DAPK1 (human)
  residual activity: 99.5%
IRAK4 (human)
  residual activity: 201%
